inhibition, EC50 and Activity data for 40 molecules are collected here from ChEMBL document CHEMBL4342413, “Structure-Activity Relationship Studies of a Novel Class of Transmission Blocking Antimalarials Targeting Male Gametes” (J Med Chem, 2020).

pEC50: −log10 of the molar value. Activity calls are given as the source filed them. The rule behind the calls is not given here. A value given as a limit tells only on which side of the number the result lay.

The subject of one data set is Plasmodium falciparum. Put plainly: Antimalarial activity against Plasmodium falciparum infected in mosquitoes assessed as inhibition of oocyst formation at 10 uM added 30 mins before mosquito feed by standard membrane feeding assay. The class given is functional.
Details: not given
With `O=S(=O)(NCC1(O)CCOc2ccccc21)c1ccc(Br)s1` (racemic), the inhibition at 10 µM stood at 99%.

A further data set deals with Plasmodium falciparum. Nature of the data set: Antimalarial activity against Plasmodium falciparum NF54 strain male gametes in human RBC incubated for 48 hrs by dual gamete formation assay based HTS assay. It counts as functional, organism-based. To be noted: NF54, 48 h.
`O=S(=O)(NCC1(O)CCOc2ccccc21)c1ccccc1Br` (racemic) gave a negative-log EC50 (pEC50) of 6.28.

In turn, `O=S(=O)(NCC1(O)CCOc2ccccc21)c1ccc(Br)s1` (racemic) had a pEC50 of 6.70.

The subject of another data set is HepG2. Put plainly: Cytotoxicity against human HepG2 cells assessed as reduction in cell viability at 50 uM incubated for 48 hrs by Alamar Blue staining based fluorescence assay. It counts as functional.
Details: not given
With `COc1cccc2c1C(=O)c1c(O)c3c(c(O)c1C2=O)C[C@@](O)(C(=O)CO)C[C@@H]3O[C@H]1C[C@H](N)[C@H](O)[C@H](C)O1`, the result was Active.

The next data set relates to HepG2. Nature of the data set: Cytotoxicity against human HepG2 cells assessed as reduction in cell viability at 10 uM incubated for 48 hrs by Alamar Blue staining based fluorescence assay. To be noted: hepg2, 48 h. On the technique in general: Resazurin is reduced to fluorescent resorufin, in cell work by metabolically active cells.
On to `O=S(=O)(NCC1(O)CCOc2ccccc21)c1ccc(Br)s1` (racemic), for which the Activity result is listed as “Non-Toxic”.

Take `O=S(=O)(NCC1(O)CCOc2cc(F)ccc21)c1cccc(Br)c1` (racemic): the Activity result is “Non-Toxic”.

For the molecule `COC1(CNS(=O)(=O)c2cccc(Br)c2)CCOc2ccccc21` (racemic), the Activity entry is “Non-Toxic”.

With `O=S(=O)(NCC1(O)CCOc2ccccc21)c1cccc(Br)c1` (racemic), the Activity entry is “Non-Toxic”.

In another data set the test system is Plasmodium falciparum. Put plainly: Antimalarial activity against Plasmodium falciparum NF54 strain male gametes in human RBC assessed as induction of impairment of exflagellation of male gametes by dual gamete formation assay. It counts as functional, organism-based.
Details: not given
With `O=S(=O)(NCC1(O)CCOc2ccccc21)c1ccc(Br)s1` (racemic), the pEC50 was 6.53 to 6.89.

For `O=S(=O)(NCC1(O)CCOc2cc(F)ccc21)c1cccc(Br)c1` (racemic), the negative logarithm of the EC50 (pEC50) is 7.10.

For the molecule `COC1(CNS(=O)(=O)c2cccc(Br)c2)CCOc2ccccc21` (racemic), the negative logarithm of the EC50 (pEC50) is 6.83.

Turning to `O=S(=O)(NCC1(O)CCOc2ccccc21)c1cccc(Br)c1` (racemic), the negative logarithm of the EC50 (pEC50) is 6.89.

As for `O=S(=O)(NCC1(O)CCOc2ccccc21)c1ccc(Br)s1` (single isomer, unassigned; (+)), the pEC50 is under 6.00.

Consider `O=S(=O)(NCC1(O)CCOc2cc(F)ccc21)c1cccc(Br)c1` (single isomer, unassigned; (+)), for which the negative-log EC50 (pEC50) is under 6.00.

Turning to `COC1(CNS(=O)(=O)c2cccc(Br)c2)CCOc2ccccc21` (single isomer, unassigned; (+)), the negative-log EC50 (pEC50) is under 5.70.

Consider `O=S(=O)(NCC1(O)CCOc2ccccc21)c1cccc(Br)c1` (single isomer, unassigned; (+)), for which the pEC50 was under 5.70.

Consider `O=S(=O)(NCC1(O)CCOc2ccccc21)c1ccc(Br)s1` (single isomer, unassigned; (-)), for which the pEC50 was 7.34.

With `O=S(=O)(NCC1(O)CCOc2cc(F)ccc21)c1cccc(Br)c1` (single isomer, unassigned; (-)), the negative-log EC50 (pEC50) is 7.29.

For `O=S(=O)(NCC1(O)CCOc2ccccc21)c1cccc(Br)c1` (stereo in doubt; (-)-6), the pEC50 was 7.74.

For the molecule `COC1(CNS(=O)(=O)c2cccc(Br)c2)CCOc2ccccc21` (stereo in doubt; (-)-74), the pEC50 is 7.23.

The same data set, now with this note: Plasmodium falciparum, NF54.
As for `O=S(=O)(NCC1=CCOc2ccccc21)c1ccc(Br)s1`, the negative-log EC50 (pEC50) was under 4.60.

On to `O=S(=O)(NCC1(O)CCOc2ccccc21)c1ccccc1Br` (racemic), for which the pEC50 was 6.44 to 6.46.

`CC(=O)c1cccc(S(=O)(=O)NCC2(O)CCOc3ccccc32)c1` (racemic): the pEC50 was under 4.70.

As to `O=S(=O)(NCC1(O)CCOc2ccccc21)c1ccccc1` (racemic), the pEC50 is 6.33.

On to `O=S(=O)(NCC1(F)CCOc2ccccc21)c1cccc(Br)c1` (racemic), for which the negative-log EC50 (pEC50) was 6.02.

With `O=S(=O)(NCC1CCOc2ccccc21)c1ccc(Br)s1` (racemic), the negative-log EC50 (pEC50) is under 5.00.

Regarding `C=CCOc1ccc2c(c1)C(O)(CNS(=O)(=O)c1cccc(Br)c1)CCO2` (racemic), the pEC50 is under 4.60.

On to `O=S(=O)(NCC1(O)CCOc2ccc(Br)cc21)c1ccc(Br)s1` (racemic), for which the negative logarithm of the EC50 (pEC50) was under 6.00.

Regarding `O=S(=O)(NCC1(O)CCOc2ccccc21)c1ccccc1Cl` (racemic), the negative-log EC50 (pEC50) is under 6.00.

Consider `O=S(=O)(NCC1(O)CCOc2ccc(F)cc21)c1cccc(Br)c1` (racemic), for which the pEC50 is 7.08.

Take `O=S(=O)(NCC1(O)CCOc2ccccc21)c1ccc(Br)cc1` (racemic): the negative logarithm of the EC50 (pEC50) was under 5.30.

With `COc1cccc2c1OCCC2(O)CNS(=O)(=O)c1ccc(Br)s1` (racemic), the negative-log EC50 (pEC50) was under 4.60.

`O=S(=O)(NCC1(O)CCOc2ccc(O)cc21)c1cccc(Br)c1` (racemic): the pEC50 was under 5.00.

With `O=S(=O)(NCC1(O)CCOc2ccc(Br)cc21)c1cccc(Br)c1` (racemic), the pEC50 was 6.11.

Take `O=S(=O)(NCC1(O)CCOc2ccccc21)c1ccc(Cl)cc1` (racemic): the negative-log EC50 (pEC50) was under 6.00.

In the case of `N#Cc1ccc(S(=O)(=O)NCC2(O)CCOc3ccccc32)cc1` (racemic), the negative-log EC50 (pEC50) was under 4.60.

With `COc1cccc2c1OCCC2(O)CNS(=O)(=O)c1cccc(Br)c1` (racemic), the pEC50 is under 4.60.

As to `O=S(=O)(NCC1(O)CCOc2ccccc21)c1cccc(Cl)c1` (racemic), the pEC50 was 6.93.

Turning to `O=S(=O)(NCC1(O)CCOc2cc(F)ccc21)c1ccc(Br)s1` (racemic), the negative-log EC50 (pEC50) is 6.44.

For `O=S(=O)(NCC1(O)CCOc2ccc(F)cc21)c1ccc(Br)s1` (racemic), the pEC50 is 6.71.

On to `COC1(CNS(=O)(=O)c2ccc(Br)s2)CCOc2ccccc21` (racemic), for which the negative logarithm of the EC50 (pEC50) was 6.45.

Consider `O=S(=O)(NCC1CCOc2ccccc21)c1cccc(Br)c1` (racemic), for which the negative logarithm of the EC50 (pEC50) was under 5.00.

Regarding `O=S(=O)(NCC1(O)CC(c2ccccc2)Oc2ccccc21)c1cccc(Br)c1` (racemic), the negative-log EC50 (pEC50) is under 4.60.

Turning to `COc1ccc(S(=O)(=O)NCC2(O)CCOc3ccccc32)cc1` (racemic), the pEC50 was under 4.60.

As to `O=S(=O)(NCC1(O)CC(c2ccccc2)Oc2ccccc21)c1ccc(Br)s1` (racemic), the pEC50 was under 4.60.

As to `O=S(=O)(NCC1(F)CCOc2ccccc21)c1ccc(Br)s1` (racemic), the negative logarithm of the EC50 (pEC50) was under 6.00.

Consider `O=S(=O)(NCC1(O)CCOc2ccccc21)c1sccc1Br` (racemic), for which the pEC50 was 6.67.

The inhibition is how much of the control response was suppressed. In general, pEC50 refers to the EC50 on a negative log10 scale, so that one unit is a factor of ten.
